Data taken from ChEMBL document CHEMBL1201862, “PubChem BioAssay data set” (2004).
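Dose response: 5 concentrations. Exposure: 48 h. Format: 96-well plates. Endpoint: linear interpolation; highest concentration if not reached. GI50: concentration for 50% inhibition of growth.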 Calls of active or inactive are those of the source. Cut-off read from the data, not from the text of the source: active = GI50 up to about 1.1 µM and inactive = higher.

Experiments:
Experiment in all cases: NCI-60 cell line screen, 48 h
CAKI-1 = tested on: CAKI-1
CCRF-CEM = tested on: CCRF-CEM
EKVX = tested on: EKVX
HCT-116 = tested on: HCT-116
IGROV-1 = tested on: IGROV-1
LOX IMVI = tested on: LOX IMVI
M14 = tested on: M14
MCF7 = tested on: MCF7
MDA-MB-435 = tested on: MDA-MB-435
NCI-H460 = tested on: NCI-H460
NCI-H522 = tested on: NCI-H522
OVCAR-3 = tested on: OVCAR-3
RXF 393 = tested on: RXF 393
SK-MEL-2 = tested on: SK-MEL-2
SK-OV-3 = tested on: SK-OV-3
SN12C = tested on: SN12C
SNB-19 = tested on: SNB-19
SNB-75 = tested on: SNB-75
SR = tested on: SR
UACC-257 = tested on: UACC-257

| SMILES | GI50 (CAKI-1) | GI50 (CCRF-CEM) | GI50 (EKVX) | GI50 (HCT-116) | GI50 (IGROV-1) | GI50 (LOX IMVI) | GI50 (M14) | GI50 (MCF7) | GI50 (MDA-MB-435) | GI50 (NCI-H460) | GI50 (NCI-H522) | GI50 (OVCAR-3) | GI50 (RXF 393) | GI50 (SK-MEL-2) | GI50 (SK-OV-3) | GI50 (SN12C) | GI50 (SNB-19) | GI50 (SNB-75) | GI50 (SR) | GI50 (UACC-257) |
| --- | --- | --- | --- | --- | --- | --- | --- | --- | --- | --- | --- | --- | --- | --- | --- | --- | --- | --- | --- | --- |
| CC(=O)O[C@H]1CC[C@@]2(C)C(=CC[C@H]3[C@@H]4C/C(=C\c5ccncc5)[C@H](OC(C)=O)[C@@]4(C)CC[C@@H]32)C1 | 11.2 µM (inactive) | 3.35 µM (inactive) | 9.55 µM (inactive) | 11.9 µM (inactive) | 11.6 µM (inactive) | 3.48 µM (inactive) | 10.9 µM (inactive) | 14.7 µM (inactive) | 12.9 µM (inactive) | 10.1 µM (inactive) | 3.65 µM (inactive) | 11.3 µM (inactive) | 2.73 µM (inactive) | 16.7 µM (inactive) | 21.6 µM (inactive) | 16.9 µM (inactive) | 8.61 µM (inactive) | 7.62 µM (inactive) | 2.7 µM (inactive) | 16.9 µM (inactive) |
| C[C@@H]1CC[C@@]2(OC1)O[C@H]1C[C@H]3[C@@H]4CC[C@H]5C[C@@H](OC6OC(CO)C(OC7OC(CO)C(O)C(OC8OCC(O)C(O)C8O)C7OC7OC(CO)C(O)C(O)C7O)C(O)C6O)[C@H](O)C[C@]5(C)[C@H]4CC[C@]3(C)[C@H]1[C@@H]2C (some centres undefined) | 2.21 µM (inactive) | 0.693 µM (active) | 5.35 µM (inactive) | 3.88 µM (inactive) | 2.16 µM (inactive) | 1.39 µM (inactive) | 15.2 µM (inactive) | 0.804 µM (active) | 13 µM (inactive) | 1.85 µM (inactive) | 0.426 µM (active) | 2.88 µM (inactive) | 9.98 µM (inactive) | 9.08 µM (inactive) | 10.8 µM (inactive) | – | 10.1 µM (inactive) | 13.6 µM (inactive) | 14.3 µM (inactive) | 18.1 µM (inactive) |
| O=C(CSc1nc2ccc(I)cc2c(=O)n1Cc1ccccc1)NNC(=S)Nc1ccccc1 | 3.33 µM (inactive) | 6.14 µM (inactive) | 1.73 µM (inactive) | 8.63 µM (inactive) | 2.91 µM (inactive) | > 100 µM (inactive) | 62.2 µM (inactive) | 22.5 µM (inactive) | 41.3 µM (inactive) | 5.47 µM (inactive) | 4.98 µM (inactive) | 12.9 µM (inactive) | > 100 µM (inactive) | 18 µM (inactive) | > 100 µM (inactive) | 3.9 µM (inactive) | 41.3 µM (inactive) | > 100 µM (inactive) | 3.1 µM (inactive) | 14.7 µM (inactive) |
| C/C(Cl)=N\OC(=O)Nc1ccc([N+](=O)[O-])cc1 | 5.21 µM (inactive) | 2.77 µM (inactive) | 19.3 µM (inactive) | 7.94 µM (inactive) | 17.5 µM (inactive) | 5.36 µM (inactive) | 12.9 µM (inactive) | 3.08 µM (inactive) | 18.8 µM (inactive) | 18.7 µM (inactive) | 1.99 µM (inactive) | 2.12 µM (inactive) | 16.8 µM (inactive) | 17.5 µM (inactive) | 13.3 µM (inactive) | 12.4 µM (inactive) | 17.5 µM (inactive) | 16.7 µM (inactive) | 6.79 µM (inactive) | 16.8 µM (inactive) |
| CSc1cc(Cl)c(C)cc1S(=O)(=O)NC(=O)Nc1ccc(Cl)cc1 | 41.6 µM (inactive) | 12.6 µM (inactive) | 32.7 µM (inactive) | 17.5 µM (inactive) | 39.6 µM (inactive) | 10.9 µM (inactive) | 39.9 µM (inactive) | 30.3 µM (inactive) | 38.4 µM (inactive) | 29.1 µM (inactive) | 20.4 µM (inactive) | 28 µM (inactive) | 22.9 µM (inactive) | 25.8 µM (inactive) | 38.7 µM (inactive) | 36.5 µM (inactive) | 30.5 µM (inactive) | 27.1 µM (inactive) | 21.5 µM (inactive) | 28.5 µM (inactive) |
